Measurements from US12077503B2, “Substituted cyclic amides and their use as herbicides” (FMC CORPORATION, priority 2015, dated 2024).
Read-outs that look alike come from different tables or passages of the source.

Assays:
Format in all cases: in vivo
[1] = test system: ragweed (common ragweed, Ambrosia elatior); assay: Test A postemergence; conditions: Ambrosia artemisiifolia, post-emergence, 240 h, postemergence, read-out: Ragweed plant response rating; for pest or weed control at 125 g/ha: 125 g ai/ha, visual injury on 0 to 100 scale (0 no effect, 100 complete control), approx. 10 d
Procedure, shortened: (§1)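 Preemergence directed soil spray on seeded pots, or postemergence application to plants 2–10 cm, one- to two-leaf. Solvent mixture non-phytotoxic, with surfactant. Scored ~10 d later, visually, 0–100 vs untreated.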

[2] = test system: Galium (catchweed bedstraw, Galium aparine); assay: Test A postemergence; conditions: Galium, post-emergence, 240 h, postemergence; for pest or weed control at 125 g/ha: 125 g ai/ha, visual injury on 0 to 100 scale (0 no effect, 100 complete control); for pest or weed control at 500 g/ha: 500 g ai/ha
Procedure, shortened: as §1

[3] = test system: blackgrass (Alopecurus myosuroides); assay: Test A postemergence; conditions: Alopecurus myosuroides, post-emergence, 240 h, postemergence; for pest or weed control at 125 g/ha: 125 g ai/ha, visual injury on 0 to 100 scale (0 no effect, 100 complete control); for pest or weed control at 500 g/ha: 500 g ai/ha
Procedure, shortened: as §1

[4] = test system: wheat (Triticum aestivum); assay: Test A postemergence; conditions: Triticum aestivum, post-emergence, 240 h, postemergence, read-out: Wheat plant response rating; for plant injury at 125 g/ha: 125 g ai/ha, visual injury on 0 to 100 scale (0 no effect, 100 complete control), approx. 10 d
Procedure, shortened: as §1

[5] = test system: pigweed (Amaranthus retroflexus); assay: Test A postemergence; conditions: Amaranthus retroflexus, post-emergence, 240 h, postemergence, read-out: Pigweed plant response rating; for pest or weed control at 125 g/ha: 125 g ai/ha, visual injury on 0 to 100 scale (0 no effect, 100 complete control), approx. 10 d
Procedure, shortened: as §1

[6] = test system: Kochia (Kochia scoparia); assay: Test A postemergence; conditions: Bassia scoparia, post-emergence, 240 h, postemergence; for pest or weed control at 125 g/ha: 125 g ai/ha, visual injury on 0 to 100 scale (0 no effect, 100 complete control); for pest or weed control at 500 g/ha: 500 g ai/ha
Procedure, shortened: as §1

[7] = test system: barnyardgrass (Echinochloa crus-galli); assay: Test A postemergence; conditions: Echinochloa crus-galli, post-emergence, 240 h, postemergence; for pest or weed control at 125 g/ha: 125 g ai/ha, visual injury on 0 to 100 scale (0 no effect, 100 complete control); for pest or weed control at 500 g/ha: 500 g ai/ha
Procedure, shortened: as §1

[8] = test system: corn (Zea mays); assay: Test A postemergence; conditions: Zea mays, post-emergence, 240 h, postemergence; for plant injury at 125 g/ha: 125 g ai/ha, visual injury on 0 to 100 scale (0 no effect, 100 complete control)
Procedure, shortened: as §1

[9] = test system: giant foxtail (Setaria faberii); assay: Test A postemergence; conditions: Setaria faberi, post-emergence, 240 h, postemergence; for pest or weed control at 125 g/ha: 125 g ai/ha, visual injury on 0 to 100 scale (0 no effect, 100 complete control); for pest or weed control at 500 g/ha: 500 g ai/ha
Procedure, shortened: as §1

[10] = test system: ryegrass, Italian (Italian ryegrass, Lolium multiflorum); assay: Test A postemergence; conditions: Lolium multiflorum, post-emergence, 240 h, postemergence, read-out: Ryegrass, Italian plant response rating; for pest or weed control at 125 g/ha: 125 g ai/ha, visual injury on 0 to 100 scale (0 no effect, 100 complete control), approx. 10 d
Procedure, shortened: as §1

[11] = test system: ragweed (common ragweed, Ambrosia elatior); assay: Test A preemergence; conditions: Ambrosia artemisiifolia, pre-emergence, 240 h; for pest or weed control at 125 g/ha: 125 g ai/ha; for pest or weed control at 500 g/ha: 500 g ai/ha, visual injury rating about 10 d after treatment, 0 to 100 scale (0 no effect, 100 complete control)
Procedure, shortened: as §1

[12] = test system: pigweed (Amaranthus retroflexus); assay: Test A preemergence; conditions: Amaranthus retroflexus, pre-emergence, 240 h; for pest or weed control at 125 g/ha: 125 g ai/ha; for pest or weed control at 500 g/ha: 500 g ai/ha, visual injury rating about 10 d after treatment, 0 to 100 scale (0 no effect, 100 complete control)
[13] = test system: Kochia (Kochia scoparia); assay: Test A preemergence; conditions: Bassia scoparia, pre-emergence, 240 h; for pest or weed control at 125 g/ha: 125 g ai/ha; for pest or weed control at 500 g/ha: 500 g ai/ha, visual injury rating about 10 d after treatment, 0 to 100 scale (0 no effect, 100 complete control)
Procedure, shortened: as §1

[14] = test system: barnyardgrass (Echinochloa crus-galli); assay: Test A preemergence; conditions: Echinochloa crus-galli, pre-emergence, 240 h; for pest or weed control at 125 g/ha: 125 g ai/ha; for pest or weed control at 500 g/ha: 500 g ai/ha, visual injury rating about 10 d after treatment, 0 to 100 scale (0 no effect, 100 complete control)
Procedure, shortened: as §1

[15] = test system: ryegrass, Italian (Italian ryegrass, Lolium multiflorum); assay: Test A preemergence; conditions: Lolium multiflorum, pre-emergence, 240 h; for pest or weed control at 125 g/ha: 125 g ai/ha; for pest or weed control at 500 g/ha: 500 g ai/ha, visual injury rating about 10 d after treatment, 0 to 100 scale (0 no effect, 100 complete control)
Procedure, shortened: as §1

[16] = 500 g ai/ha, 0 to 100 scale, 0 is no effect, 100 is complete control
[17] = approx. 10 d, read-out: Galium plant response rating
[18] = approx. 10 d, read-out: Blackgrass plant response rating
[19] = approx. 10 d, read-out: Kochia plant response rating
[20] = approx. 10 d, read-out: Barnyardgrass plant response rating
[21] = approx. 10 d, read-out: Corn plant response rating
[22] = approx. 10 d, read-out: Foxtail, Giant plant response rating
[23] = preemergence, read-out: Ragweed plant response rating
[24] = preemergence, read-out: Pigweed plant response rating
[25] = preemergence, read-out: Kochia plant response rating
[26] = preemergence, read-out: Barnyardgrass plant response rating
[27] = preemergence, read-out: Ryegrass, Italian plant response rating

| Compound | pest or weed control at 125 g/ha [1] [%] | pest or weed control at 125 g/ha [2, 17] [%] | pest or weed control at 125 g/ha [3, 18] [%] | plant injury at 125 g/ha [4] [%] | pest or weed control at 125 g/ha [5] [%] | pest or weed control at 125 g/ha [6, 19] [%] | pest or weed control at 125 g/ha [7, 20] [%] | plant injury at 125 g/ha [8, 21] [%] | pest or weed control at 125 g/ha [9, 22] [%] | pest or weed control at 125 g/ha [10] [%] | pest or weed control at 500 g/ha [11, 23] [%] | pest or weed control at 500 g/ha [12, 24] [%] | pest or weed control at 500 g/ha [13, 25] [%] | pest or weed control at 500 g/ha [14, 26] [%] | pest or weed control at 500 g/ha [15, 27] [%] | also measured |
| --- | --- | --- | --- | --- | --- | --- | --- | --- | --- | --- | --- | --- | --- | --- | --- | --- |
| CN1C[C@H](c2cc(F)cc(F)c2)[C@@H](C(=O)Nc2ccncc2F)C1=O [Compound 1095] | 0 | 0 | 0 | 0 | 0 | 0 | 0 | 0 | 0 | 0 | 0 | 30 | 0 | 60 | 0 | pest or weed control at 500 g/ha [1, 16]: 0%; pest or weed control at 500 g/ha ([2]; 0 to 100 scale, 0 is no effect, 100 is complete control, read-out: Galium plant response rating): 0%; pest or weed control at 500 g/ha ([3]; 0 to 100 scale, 0 is no effect, 100 is complete control, read-out: Blackgrass plant response rating): 0%; plant injury at 500 g/ha [4, 16]: 0%; pest or weed control at 500 g/ha [5, 16]: 0%; pest or weed control at 500 g/ha ([6]; 0 to 100 scale, 0 is no effect, 100 is complete control, read-out: Kochia plant response rating): 0%; pest or weed control at 500 g/ha ([7]; 0 to 100 scale, 0 is no effect, 100 is complete control, read-out: Barnyardgrass plant response rating): 0%; plant injury at 500 g/ha ([8]; 500 g ai/ha, 0 to 100 scale, 0 is no effect, 100 is complete control, read-out: Corn plant response rating): 0%; pest or weed control at 500 g/ha ([9]; 0 to 100 scale, 0 is no effect, 100 is complete control, read-out: Foxtail, Giant plant response rating): 0%; pest or weed control at 500 g/ha [10, 16]: 0%; pest or weed control at 125 g/ha ([11]; preemergence, 0 to 100 scale where 0 is no effect and 100 is complete control, approx. 10 d, read-out: Ragweed plant response rating): 0%; pest or weed control at 125 g/ha ([12]; preemergence, 0 to 100 scale where 0 is no effect and 100 is complete control, approx. 10 d, read-out: Pigweed plant response rating): 0%; pest or weed control at 125 g/ha ([13]; preemergence, 0 to 100 scale where 0 is no effect and 100 is complete control, approx. 10 d, read-out: Kochia plant response rating): 0%; pest or weed control at 125 g/ha ([14]; preemergence, 0 to 100 scale where 0 is no effect and 100 is complete control, approx. 10 d, read-out: Barnyardgrass plant response rating): 0%; pest or weed control at 125 g/ha ([15]; preemergence, 0 to 100 scale where 0 is no effect and 100 is complete control, approx. 10 d, read-out: Ryegrass, Italian plant response rating): 0% |
| O=C1NC[C@H](c2ccc3c(c2)CCC3)[C@H]1C(=O)Nc1cccc(F)c1F [Compound 1046] | 0 | 50 | 30 | 20 | 0 | 0 | 90 | 20 | 60 | 40 | 70 | 0 | 70 | 90 | 60 | pest or weed control at 500 g/ha ([2]; visual injury, 0 to 100 scale (0 no effect, 100 complete control), approx. 10 d, read-out: Plant response rating, Galium): 50%; pest or weed control at 500 g/ha ([3]; visual injury, 0 to 100 scale (0 no effect, 100 complete control), approx. 10 d, read-out: Plant response rating, Blackgrass): 50%; pest or weed control at 500 g/ha ([6]; visual injury, 0 to 100 scale (0 no effect, 100 complete control), approx. 10 d, read-out: Plant response rating, Kochia): 0%; pest or weed control at 500 g/ha ([7]; visual injury, 0 to 100 scale (0 no effect, 100 complete control), approx. 10 d, read-out: Plant response rating, Barnyardgrass): 90%; Corn plant response rating (crop injury, 0 = no effect, 100 = complete kill) at 500 g/ha ([8]; 500 g ai/ha, visual injury, 0 to 100 scale (0 no effect, 100 complete control), approx. 10 d): 60%; pest or weed control at 500 g/ha ([9]; visual injury, 0 to 100 scale (0 no effect, 100 complete control), approx. 10 d, read-out: Plant response rating, Foxtail, Giant): 90%; pest or weed control at 125 g/ha ([11]; Preemergence, visual injury rating after approximately 10 d, read-out: Ragweed plant response rating (0 to 100 scale, 0 is no effect, 100 is complete control)): 40%; pest or weed control at 125 g/ha ([12]; Preemergence, visual injury rating after approximately 10 d, read-out: Pigweed plant response rating (0 to 100 scale, 0 is no effect, 100 is complete control)): 0%; pest or weed control at 125 g/ha ([13]; Preemergence, visual injury rating after approximately 10 d, read-out: Kochia plant response rating (0 to 100 scale, 0 is no effect, 100 is complete control)): 60%; pest or weed control at 125 g/ha ([14]; Preemergence, visual injury rating after approximately 10 d, read-out: Barnyardgrass plant response rating (0 to 100 scale, 0 is no effect, 100 is complete control)): 90%; pest or weed control at 125 g/ha ([15]; Preemergence, visual injury rating after approximately 10 d, read-out: Ryegrass, Italian plant response rating (0 to 100 scale, 0 is no effect, 100 is complete control)): 60% |
